System: 817829-284-R-J1-PDC complex spheroids, viability
Assay: Anticancer human tumor 817829-284-R-J1-PDC patient-derived colon adenocarcinoma cell line growth inhibition [GQUAD]
Conditions: for IC50: curve of first compound; for viability, T/C: stronger effect = lower value
Excerpt: DNA G-quadruplex Stabilizer Agents in Combinations in Complex Spheroids
A high-throughput screen of multi-cell type tumor spheroids was designed to identify active combinations of DNA G-quadruplex stabilizer agents and targeted small molecules. Complex spheroids include a stromal component modeled by human endothelial cells (HUVEC) and fibroblasts modeled by human mesenchymal stem cells (MSCs). The concentration ranges selected for each drug and investigational agent were based upon clinically achievable concentrations if the clinical Cmax of the agent was known.
Compounds. The drugs and investigational agents: pidnarulex (CX-5461; NSC782164), APTO-253 (NSC789042), BRACO-19 (NSC847499), peposertib (NSC802822), ceralasertib (NSC780249), elimusertib (NSC800525), camonsertib (NSC841442), AZD-1390 (NSC803789), olaparib (NSC753686), talazoparib (NSC767125), ART-558 (NSC835418), sotorasib (NSC818433), MRTX-1133 (NSC836407), SN-38 (NSC673596), topotecan (NSC609699), etoposide (NSC141540), doxorubicin (NSC123127), gemcitabine (NSC613327), 5-fluorouracil (NSC19893), paclitaxel (NSC125973), vemurafenib (NSC761431), panobinostat (NSC761190), R-306465 (JNJ-16241199; NSC773264), adavosertib (NSC754352), TP-3654 (NSC805149), carboplatin (NSC241240), KSQ-4279 (NSC840948), and staurosporine (NSC755774) were obtained from the National Cancer Institute (NCI) Developmental Therapeutics Program Chemical Repository (34). The FDA-approved anticancer drug set is available from the NCI Developmental Therapeutics Program. […] The stock solutions were prepared in dimethyl sulfoxide (DMSO, Sigma-Aldrich, St. Louis, MO, cat. D2650) at 800-fold the tested concentration and stored at -70 degrees C prior to their use. All drugs and investigational agents were tested over a range starting from a high concentration at or near the clinical Cmax and decreasing in half-log increments. If the clinical Cmax for an agent had not been determined, the highest concentration tested was 10 microM.
2.3 Cell Culture. All cells were maintained in an incubator at 37 degrees C and 5% CO2 with 95% humidity. The PDC lines were cultured according to standard operating procedures established by the NCI PDMR. All PDCs were thawed and cultured in Matrigel-coated flasks prepared with a working solution of 1X Ham's F-12 nutrient mix, without supplementation (Invitrogen, cat. 11765054), 100 U/mL penicillin-streptomycin (Invitrogen, cat. 15140122), and 2.5% Matrigel (Corning Inc., cat. 354248) for the first three passages. The 857933-349-R-J2-PDC line was cultured in 6C/Colon 1B media, which includes advanced DMEM/F-12 (Thermo Fisher Scientific, cat. 12634028), 10 mM HEPES (Thermo Fisher Scientific, cat. 15630080), 1X GlutaMAX supplement (Thermo Fisher Scientific, cat. 35050061), 0.1 mg/mL primocin (InvivoGen, cat. ant-pm-2), 10% defined fetal bovine serum, heat inactivated (HyClone Laboratories Inc., cat. SH30070.03HI), 50% L-WRN conditioned media (ATCC, cat. CRL-3276), 1.25 mM N-Acetyl-L-cysteine (Sigma-Aldrich, cat. A9165), 10 mM nicotinamide (Sigma-Aldrich, cat. N0636), 1X B-27 supplement (Thermo Fisher Scientific, cat. 17504044), 1X N-2 supplement (Thermo Fisher Scientific, cat. 17502048), 10 microM Y-27632 dihydrochloride (Tocris Bioscience, cat. 1254), and 50 ng/mL human EGF recombinant protein (Thermo Fisher Scientific, cat. PHG0311). The 485176-168-R4-J1-PDC line was cultured in Panc media, which includes all 6C/Colon 1B media components plus 100 ng/mL human FGF-10 (Thermo Fisher Scientific, cat. 100-26), 500 nM SB-431542 (Selleckchem, cat. S1067), and gastrin (Tocris, cat. 3006).
[…]

[1] = second compound 0.0316 µM, first compound 0.0316 µM
[2] = second compound 0.0316 µM, first compound 0.1 µM
[3] = second compound 0.0316 µM, first compound 0.316 µM
[4] = second compound 0.0316 µM, first compound 1 µM
[5] = second compound 0.0316 µM, first compound 3.16 µM
[6] = second compound 0.0316 µM, first compound 10 µM
[7] = second compound 0.1 µM, first compound 0.0316 µM
[8] = second compound 0.1 µM, first compound 0.1 µM
[9] = second compound 0.1 µM, first compound 0.316 µM
[10] = second compound 0.1 µM, first compound 1 µM
[11] = second compound 0.1 µM, first compound 3.16 µM
[12] = second compound 0.1 µM, first compound 10 µM
[13] = second compound 0.316 µM, first compound 0.0316 µM
[14] = second compound 0.316 µM, first compound 0.1 µM
[15] = second compound 0.316 µM, first compound 0.316 µM
[16] = second compound 0.316 µM, first compound 1 µM
[17] = second compound 0.316 µM, first compound 3.16 µM
[18] = second compound 0.316 µM, first compound 10 µM
[19] = second compound 1 µM, first compound 0.0316 µM
[20] = second compound 1 µM, first compound 0.1 µM
[21] = second compound 1 µM, first compound 0.316 µM
[22] = second compound 1 µM, first compound 1 µM
[23] = second compound 1 µM, first compound 3.16 µM
[24] = second compound 1 µM, first compound 10 µM
[25] = second compound 3.16 µM, first compound 0.0316 µM
[26] = second compound 3.16 µM, first compound 0.1 µM
[27] = second compound 3.16 µM, first compound 0.316 µM
[28] = second compound 3.16 µM, first compound 1 µM
[29] = second compound 3.16 µM, first compound 3.16 µM
[30] = second compound 3.16 µM, first compound 10 µM
[31] = second compound 10 µM, first compound 0.0316 µM
[32] = second compound 10 µM, first compound 0.1 µM
[33] = second compound 10 µM, first compound 0.316 µM
[34] = second compound 10 µM, first compound 1 µM
[35] = second compound 10 µM, first compound 3.16 µM
[36] = second compound 10 µM, first compound 10 µM
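Further: spheroids exposed to agents for 7 days before readout.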
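Wherever viability, T/C is given: percent viability relative to DMSO vehicle control taken as 100%.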

In the case of `CC(C)(O)C1CCC(Nc2ccc3ncc(-c4cccc(C(F)(F)F)c4)n3n2)CC1` (centres undefined) + CN(C)c1ccc(Nc2c3ccc(NC(=O)CCN4CCCC4)cc3nc3cc(NC(=O)CCN4CCCC4)ccc23)cc1, the IC50 (second compound 0.0316 µM) is reported as over 10000 nM, the IC50 (second compound 0.1 µM) is reported as 3130 nM and the IC50 (second compound 0.316 µM) is reported as 2570 nM. For the same molecule, the IC50 (second compound 1 µM) was 2260 nM, the IC50 (second compound 3.16 µM) was 2100 nM and the IC50 (second compound 10 µM) was 1170 nM. The viability, T/C [1] was 102%, the viability, T/C [2] was 100% and the viability, T/C [3] was 111%. The viability, T/C [4] was 88.4%, the viability, T/C [5] was 35.7% and the viability, T/C [6] was 64.8%. It also gave a viability, T/C [7] of 98%, a viability, T/C [8] of 101% and a viability, T/C [9] of 90.3%. For the same molecule, the viability, T/C [10] was 95.9%, the viability, T/C [11] was 39.9% and the viability, T/C [12] was 59.2%. The viability, T/C [13] was 97.5%, the viability, T/C [14] was 97% and the viability, T/C [15] was 86.8%. It also gave a viability, T/C [16] of 97.1%, a viability, T/C [17] of 33.4% and a viability, T/C [18] of 47.3%. For the same molecule, the viability, T/C [19] was 92.9%, the viability, T/C [20] was 103% and the viability, T/C [21] was 95.8%. For the same molecule, the viability, T/C [22] was 93.5%, the viability, T/C [23] was 28.9% and the viability, T/C [24] was 35.1%. It also gave a viability, T/C [25] of 96.5%, a viability, T/C [26] of 97.3% and a viability, T/C [27] of 87.9%. It also gave a viability, T/C [28] of 83.3%, a viability, T/C [29] of 31.6% and a viability, T/C [30] of 23.2%. The viability, T/C [31] was 96%, the viability, T/C [32] was 102% and the viability, T/C [33] was 87.2%. It also gave a viability, T/C [34] of 58.5%, a viability, T/C [35] of 5.62% and a viability, T/C [36] of 2.44%.

`CC1COCCN1c1cc(C2(O)CC3CCC(C2)O3)c2cnn(-c3ccn[nH]3)c2n1` (centres undefined) + CN(C)c1ccc(Nc2c3ccc(NC(=O)CCN4CCCC4)cc3nc3cc(NC(=O)CCN4CCCC4)ccc23)cc1 showed an IC50 (second compound 0.0316 µM) of under 31.6 nM, an IC50 (second compound 0.1 µM) of under 31.6 nM and an IC50 (second compound 0.316 µM) of under 31.6 nM. For the same molecule, the IC50 (second compound 1 µM) was under 31.6 nM, the IC50 (second compound 3.16 µM) was under 31.6 nM and the IC50 (second compound 10 µM) was under 31.6 nM. The viability, T/C [1] was 30%, the viability, T/C [2] was 13.9% and the viability, T/C [3] was 8.88%. For the same molecule, the viability, T/C [4] was 7.25%, the viability, T/C [5] was 6.14% and the viability, T/C [6] was 5.19%. For the same molecule, the viability, T/C [7] was 31.5%, the viability, T/C [8] was 15.1% and the viability, T/C [9] was 8.31%. The viability, T/C [10] was 6.53%, the viability, T/C [11] was 6.56% and the viability, T/C [12] was 4.3%. It also gave a viability, T/C [13] of 29.9%, a viability, T/C [14] of 14.4% and a viability, T/C [15] of 10.4%. It also gave a viability, T/C [16] of 7.63%, a viability, T/C [17] of 5.34% and a viability, T/C [18] of 4.95%. For the same molecule, the viability, T/C [19] was 29.1%, the viability, T/C [20] was 16.7% and the viability, T/C [21] was 9.05%. It also gave a viability, T/C [22] of 6.94%, a viability, T/C [23] of 7.14% and a viability, T/C [24] of 4.24%. It also gave a viability, T/C [25] of 28.9%, a viability, T/C [26] of 13.8% and a viability, T/C [27] of 9.17%. The viability, T/C [28] was 7.04%, the viability, T/C [29] was 7.35% and the viability, T/C [30] was 4.31%. It also gave a viability, T/C [31] of 20.2%, a viability, T/C [32] of 13.6% and a viability, T/C [33] of 7.79%. The viability, T/C [34] was 6.03%, the viability, T/C [35] was 5.19% and the viability, T/C [36] was 3.21%.
